Laboratory results: ChEMBL document CHEMBL4396971, “Discovery of potent and orally bioavailable indazole-based glucagon receptor antagonists for the treatment of type 2 diabetes” (Bioorg Med Chem Lett, 2019)
pIC50, pKi: −log10 of the molar value. Active and inactive are the calls of the source. The rule behind the calls is not given here.

Legend:
Glucagon receptor [1] = biological target: T1, Glucagon receptor (Homo sapiens, UniProt P47871); experiment: Inhibition of human full length GCGR transfected in HEK293 cells assessed as reduction in glucagon-induced cAMP response by LANCE TR-FRET assay; type: functional, cell-based
[2] = Oral bioavailability in C57 mouse at 20 mg/kg; type: ADME, organism-based; details: in vivo
Cytochrome P450 2C19 = Cytochrome P450 2C19 (Homo sapiens, UniProt P33261); experiment: Inhibition of CYP2C19 (unknown origin) using S-Mephenytoin as substrate; type: ADME
[3] = Half life in dog at 10 mg/kg, po; type: ADME, organism-based, Canis lupus familiaris; details: in vivo
[4] = Half life in Sprague-Dawley rat at 10 mg/kg, po; type: ADME, organism-based; details: in vivo
[5] = AUClast in dog at 2 mg/kg, iv or 10 mg/kg, po; type: ADME, organism-based, Canis lupus familiaris; details: in vivo
[6] = Protein binding in human plasma at 1 uM; type: ADME, cell-free; details: read-out: PPB
Cytochrome P450 3A4 [7] = biological target: T2, Cytochrome P450 3A4 (Homo sapiens, UniProt P08684); experiment: Inhibition of CYP3A4 (unknown origin) using midazolam as substrate; type: ADME
[8] = Cmax in C57 mouse at 5 mg/kg, iv or 20 mg/kg, po; type: ADME, organism-based; details: in vivo
[9] = Cmax in dog at 2 mg/kg, iv or 10 mg/kg, po; type: ADME, organism-based, Canis lupus familiaris; details: in vivo
[10] = Half life in C57 mouse at 20 mg/kg, po; type: ADME, organism-based; details: in vivo
[11] = Oral bioavailability in Sprague-Dawley rat at 10 mg/kg; type: ADME, organism-based; details: in vivo
Cytochrome P450 2C9 = Cytochrome P450 2C9 (Homo sapiens, UniProt P11712); experiment: Inhibition of CYP2C9 (unknown origin) using tolbutamide as substrate; type: ADME
Cytochrome P450 1A2 = biological target: T3, Cytochrome P450 1A2 (Homo sapiens, UniProt P05177); experiment: Inhibition of CYP1A2 (unknown origin) using phenacetin as substrate; type: ADME
T3 sequence (P05177 whole entry): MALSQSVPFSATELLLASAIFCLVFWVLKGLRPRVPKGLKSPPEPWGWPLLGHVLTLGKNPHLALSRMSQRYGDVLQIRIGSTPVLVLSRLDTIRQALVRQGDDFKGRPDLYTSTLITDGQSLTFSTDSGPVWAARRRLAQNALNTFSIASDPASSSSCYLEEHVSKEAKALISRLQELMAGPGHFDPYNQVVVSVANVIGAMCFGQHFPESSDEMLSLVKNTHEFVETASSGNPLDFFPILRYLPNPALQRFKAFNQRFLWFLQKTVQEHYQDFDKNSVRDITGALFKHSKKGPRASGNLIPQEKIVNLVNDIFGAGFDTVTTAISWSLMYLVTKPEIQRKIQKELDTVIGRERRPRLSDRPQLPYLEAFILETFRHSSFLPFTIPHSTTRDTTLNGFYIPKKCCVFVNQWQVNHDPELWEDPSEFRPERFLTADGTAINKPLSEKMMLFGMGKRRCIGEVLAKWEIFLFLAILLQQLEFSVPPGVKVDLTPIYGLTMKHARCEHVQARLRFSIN

[12] = Volume of distribution at steady state in Sprague-Dawley rat at 2 mg/kg, iv or 10 mg/kg, po; type: ADME, organism-based; details: in vivo, read-out: Vdss
[13] = Stability in mouse liver microsomes assessed as parent compound remaining at 1 uM incubated for 10 mins; type: ADME, Microsome; details: for remaining at 10 min, 1 µM: liver microsomes, read-out: Stability
[14] = Stability in rat liver microsomes assessed as parent compound remaining at 1 uM incubated for 10 mins; type: ADME, Microsome; details: read-out: Stability
[15] = Clearance in dog at 2 mg/kg, iv or 10 mg/kg, po; type: ADME, organism-based, Canis lupus familiaris; details: in vivo
[16] = Clearance in Sprague-Dawley rat at 2 mg/kg, iv or 10 mg/kg, po; type: ADME, organism-based; details: in vivo
[17] = Antagonist activity at GCGR in dog hepatocytes assessed as inhibition of glucagon-induced cAMP by LANCE TR-FRET assay; type: cell-based, Canis lupus familiaris
Canis familiaris [18] = experiment: Antidiabetic activity in Beagle dog assessed as reduction in blood glucose level at 10 mg/kg, po administered via gavage as single dose 90 mins prior to glucagon challenge measured up to 60 mins post glucagon challenge by glucometer analysis; type: functional, organism-based; details: Canis lupus familiaris
[19] = Half life in dog at 2 mg/kg, iv; type: ADME, organism-based, Canis lupus familiaris; details: in vivo
[20] = Half life in C57 mouse at 5 mg/kg, iv; type: ADME, organism-based; details: in vivo
[21] = AUClast in C57 mouse at 5 mg/kg, iv or 20 mg/kg, po; type: ADME, organism-based; details: in vivo
[22] = Clearance in C57 mouse at 5 mg/kg, iv or 20 mg/kg, po; type: ADME, organism-based; details: in vivo
Cytochrome P450 2D6 = Cytochrome P450 2D6 (Homo sapiens, UniProt P10635); experiment: Inhibition of CYP2D6 (unknown origin) using dextromethorphan as substrate; type: ADME
[23] = Cmax in Sprague-Dawley rat at 2 mg/kg, iv or 10 mg/kg, po; type: ADME, organism-based; details: in vivo
Cytochrome P450 3A4 [24] = biological target: T2, Cytochrome P450 3A4; experiment: Inhibition of CYP3A4 (unknown origin) using testosterone as substrate; type: ADME
[25] = AUClast in Sprague-Dawley rat at 2 mg/kg, iv or 10 mg/kg, po; type: ADME, organism-based; details: in vivo
[26] = Oral bioavailability in dog at 10 mg/kg; type: ADME, organism-based, Canis lupus familiaris; details: in vivo
[27] = Volume of distribution at steady state in dog at 2 mg/kg, iv or 10 mg/kg, po; type: ADME, organism-based, Canis lupus familiaris; details: in vivo, read-out: Vdss
[28] = Stability in human liver microsomes assessed as parent compound remaining at 1 uM incubated for 10 mins; type: ADME, Microsome; details: read-out: Stability
[29] = Half life in Sprague-Dawley rat at 2 mg/kg, iv; type: ADME, organism-based; details: in vivo
[30] = Stability in dog liver microsomes assessed as parent compound remaining at 1 uM incubated for 10 mins; type: ADME, Canis lupus familiaris, Microsome; details: liver microsomes, read-out: Stability
Canis familiaris [31] = experiment: Antidiabetic activity in Beagle dog assessed as reduction in blood glucose AUC at 10 mg/kg, po administered via gavage as single dose 90 mins prior to glucagon challenge by glucometer analysis; type: functional, organism-based; details: Canis lupus familiaris
[32] = Volume of distribution at steady state in C57 mouse at 5 mg/kg, iv or 20 mg/kg, po; type: ADME, organism-based; details: in vivo, read-out: Vdss
Canis familiaris [33] = experiment: Antidiabetic activity in Beagle dog assessed as reduction in blood glucose AUC administered orally via gavage as single dose 90 mins prior to glucagon challenge by glucometer analysis; type: functional, organism-based; details: Canis lupus familiaris
Glucagon receptor [34] = biological target: T1, Glucagon receptor; experiment: Potency index, ratio of Ki of 3-(4-((1R)-1-(4-methoxy-5-(2-methyl-4-(trifluoromethyl)phenyl)-1H-indazol-1-yl)-3-methylbutyl)benzamido)propanoic acid to Ki of compound for human full length GCGR transfected in HEK293 cells assessed as reduction in glucagon-induced cAMP response by LANCE TR-FRET assay; type: functional, cell-based

T2 sequence (P08684 whole entry): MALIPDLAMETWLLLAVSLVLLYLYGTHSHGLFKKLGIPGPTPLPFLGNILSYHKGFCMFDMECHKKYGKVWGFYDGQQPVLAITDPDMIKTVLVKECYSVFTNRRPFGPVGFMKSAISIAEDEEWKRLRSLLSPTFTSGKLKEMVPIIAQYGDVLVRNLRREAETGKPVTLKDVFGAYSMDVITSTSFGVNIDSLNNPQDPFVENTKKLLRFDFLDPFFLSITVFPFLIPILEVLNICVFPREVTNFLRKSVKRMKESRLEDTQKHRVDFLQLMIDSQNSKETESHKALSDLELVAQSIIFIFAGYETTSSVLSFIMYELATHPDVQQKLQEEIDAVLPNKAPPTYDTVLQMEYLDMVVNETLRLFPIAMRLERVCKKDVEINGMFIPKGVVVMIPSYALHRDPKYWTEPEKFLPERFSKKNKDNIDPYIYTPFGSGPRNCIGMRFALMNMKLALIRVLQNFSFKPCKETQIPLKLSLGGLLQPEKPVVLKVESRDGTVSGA
T1 sequence (P47871 whole entry): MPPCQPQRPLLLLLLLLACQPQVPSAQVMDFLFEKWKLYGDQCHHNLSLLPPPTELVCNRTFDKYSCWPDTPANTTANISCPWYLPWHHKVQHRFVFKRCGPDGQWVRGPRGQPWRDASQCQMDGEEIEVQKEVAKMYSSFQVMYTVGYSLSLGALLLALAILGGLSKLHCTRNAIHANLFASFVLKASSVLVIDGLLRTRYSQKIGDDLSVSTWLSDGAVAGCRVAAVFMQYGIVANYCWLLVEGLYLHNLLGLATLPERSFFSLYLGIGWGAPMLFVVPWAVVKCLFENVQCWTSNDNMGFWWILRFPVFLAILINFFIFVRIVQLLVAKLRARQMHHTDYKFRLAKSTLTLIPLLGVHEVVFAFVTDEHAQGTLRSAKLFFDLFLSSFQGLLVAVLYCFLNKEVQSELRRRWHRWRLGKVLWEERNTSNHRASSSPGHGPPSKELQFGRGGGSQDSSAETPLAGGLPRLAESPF
Cytochrome P450 2D6, sequence (P10635 whole entry): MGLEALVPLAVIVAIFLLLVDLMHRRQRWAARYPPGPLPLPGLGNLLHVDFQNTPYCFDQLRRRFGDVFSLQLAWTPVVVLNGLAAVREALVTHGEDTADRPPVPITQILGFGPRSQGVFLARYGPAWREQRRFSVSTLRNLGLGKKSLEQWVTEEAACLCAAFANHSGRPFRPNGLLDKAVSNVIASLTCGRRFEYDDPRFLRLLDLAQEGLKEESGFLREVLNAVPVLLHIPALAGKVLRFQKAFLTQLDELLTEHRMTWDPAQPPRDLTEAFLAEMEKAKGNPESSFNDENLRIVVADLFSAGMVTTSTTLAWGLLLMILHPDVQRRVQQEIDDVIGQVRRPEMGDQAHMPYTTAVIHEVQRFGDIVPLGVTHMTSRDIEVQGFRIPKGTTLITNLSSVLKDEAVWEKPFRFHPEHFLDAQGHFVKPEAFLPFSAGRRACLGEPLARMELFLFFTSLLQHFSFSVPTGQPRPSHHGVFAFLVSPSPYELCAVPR
Cytochrome P450 2C9, sequence (P11712 whole entry): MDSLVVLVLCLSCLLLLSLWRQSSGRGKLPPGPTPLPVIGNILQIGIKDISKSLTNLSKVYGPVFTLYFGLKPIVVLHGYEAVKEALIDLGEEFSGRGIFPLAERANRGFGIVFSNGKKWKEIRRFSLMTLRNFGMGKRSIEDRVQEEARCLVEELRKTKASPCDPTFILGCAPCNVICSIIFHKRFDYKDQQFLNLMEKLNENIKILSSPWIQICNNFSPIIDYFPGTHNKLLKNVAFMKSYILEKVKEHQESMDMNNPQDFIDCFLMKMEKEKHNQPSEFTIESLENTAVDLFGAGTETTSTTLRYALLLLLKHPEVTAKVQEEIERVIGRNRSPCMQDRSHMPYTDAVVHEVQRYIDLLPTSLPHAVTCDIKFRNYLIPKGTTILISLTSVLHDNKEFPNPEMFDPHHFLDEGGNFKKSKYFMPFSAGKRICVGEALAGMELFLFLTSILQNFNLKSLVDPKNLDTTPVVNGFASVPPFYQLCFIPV
Cytochrome P450 2C19, sequence (P33261 whole entry): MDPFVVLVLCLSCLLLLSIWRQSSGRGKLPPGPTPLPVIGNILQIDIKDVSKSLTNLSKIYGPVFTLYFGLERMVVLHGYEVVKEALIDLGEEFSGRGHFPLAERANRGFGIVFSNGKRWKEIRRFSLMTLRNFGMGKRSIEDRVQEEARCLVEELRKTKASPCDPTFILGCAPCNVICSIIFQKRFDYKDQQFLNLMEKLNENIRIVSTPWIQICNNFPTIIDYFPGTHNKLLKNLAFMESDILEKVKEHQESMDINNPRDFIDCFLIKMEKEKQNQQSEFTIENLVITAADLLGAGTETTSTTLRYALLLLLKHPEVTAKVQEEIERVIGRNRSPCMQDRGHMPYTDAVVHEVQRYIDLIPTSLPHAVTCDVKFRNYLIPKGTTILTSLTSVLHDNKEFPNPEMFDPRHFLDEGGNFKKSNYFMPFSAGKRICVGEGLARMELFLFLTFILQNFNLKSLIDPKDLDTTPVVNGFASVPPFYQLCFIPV

Compound | bioavailability [2] | pIC50 (Cytochrome P450 2C19) | half-life [3] | half-life [4] | AUC(0-t) [5] | fraction unbound at 1 µM [6] | pIC50 (Cytochrome P450 3A4 [7]) | Cmax [8] | Cmax [9] | half-life [10] | bioavailability [11] | pIC50 (Cytochrome P450 2C9) | pIC50 (Cytochrome P450 1A2) | Vd [12] | remaining at 10 min, 1 µM [13] | remaining at 10 min, 1 µM [14] | clearance [15] | clearance [16] | remaining at 10 min, 1 µM [28] | remaining at 10 min, 1 µM [30] | other results
CC(C)C[C@H](c1ccc(C(=O)NCCC(=O)O)cc1)n1ncc2cc(-c3ccc(C(F)(F)F)cc3)ccc21 | – | – | – | – | – | – | – | – | – | – | – | – | – | – | – | – | – | – | – | – | pKi (Glucagon receptor [1]): 7.02
Cc1c(-c2ccc(C(F)(F)F)cc2Cl)ccc2nn([C@@H](CC(C)C)c3ccc(C(=O)NCCC(=O)O)cc3)cc12 | 78.6% | < 5.00 | 7.3 h | 7.7 h | 248 µM·h | 0.0001 | < 5.00 | 7.6 µM | 21.9 µM | 3.1 h | 13.2% | < 5.00 | < 5.00 | 2.46 L/kg | 97% | 107% | 0.42 mL/min/kg | 26.5 mL/min/kg | 118% | 75% | pKi (Glucagon receptor [1]): 7.64; pKi [17]: 7.05; inhibition (Canis familiaris [18]): Active; half-life [19]: 5.5 h; half-life [20]: 2.8 h; AUC(0-t) [21]: 44.9 µM·h; clearance [22]: 10.2 mL/min/kg; pIC50 (Cytochrome P450 2D6): < 5.00; Cmax [23]: 0.2 µM; pIC50 (Cytochrome P450 3A4 [24]): < 5.00; AUC(0-t) [25]: 1.4 µM·h; bioavailability [26]: 35.7%; Vd [27]: 0.17 L/kg; half-life [29]: 1.9 h; inhibition (Canis familiaris [31]): Active; Vd [32]: 2.24 L/kg
Cc1cc2c(cnn2[C@@H](CC(C)C)c2ccc(C(=O)NCCC(=O)O)cc2)cc1-c1ccc(C(F)(F)F)cc1Cl | 121% | < 5.00 | 18.9 h | 7.1 h | 544 µM·h | 0.0001 | < 5.00 | 15.6 µM | 34.1 µM | 9.1 h | 35.4% | < 5.00 | < 5.00 | 3.32 L/kg | 99% | 67% | 0.21 mL/min/kg | 18.7 mL/min/kg | 62% | 65% | pKi [17]: 7.70; inhibition (Canis familiaris [18]): Active; half-life [19]: 16 h; half-life [20]: 7.8 h; AUC(0-t) [21]: 254 µM·h; clearance [22]: 2.47 mL/min/kg; pIC50 (Cytochrome P450 2D6): < 5.00; inhibition (Canis familiaris [33]): Dose-dependent effect; Cmax [23]: 0.5 µM; pIC50 (Cytochrome P450 3A4 [24]): < 5.00; AUC(0-t) [25]: 5.6 µM·h; bioavailability [26]: 57.3%; Vd [27]: 0.27 L/kg; half-life [29]: 3.6 h; inhibition (Canis familiaris [31]): Active; Vd [32]: 1.45 L/kg
Cc1c(-c2ccc(C(F)(F)F)cc2Cl)ccc2c1cnn2[C@@H](CC(C)C)c1ccc(C(=O)NCCC(=O)O)cc1 | – | – | – | – | – | – | – | – | – | – | – | – | – | – | – | 87% | – | – | 89% | 31% | Stability ([13]; microsomes, 10 min, 1 µM): 121%
Cc1cc(C(F)(F)F)ccc1-c1ccc2nn([C@@H](CC(C)C)c3ccc(C(=O)NCCC(=O)O)cc3)cc2c1C | – | – | – | – | – | – | – | – | – | – | – | – | – | – | 50% | 107% | – | – | 110% | 64% | –
Cc1cc(C(F)(F)F)ccc1-c1cc2cnn([C@@H](CC(C)C)c3ccc(C(=O)NCCC(=O)O)cc3)c2cc1C | 70.1% | < 5.00 | 16.9 h | 3.1 h | 422 µM·h | 0.0001 | < 5.00 | 18.9 µM | 27.7 µM | 6.5 h | 51.9% | < 5.00 | < 5.00 | 2.67 L/kg | 70% | 116% | 0.21 mL/min/kg | 26.8 mL/min/kg | 81% | 80% | pKi [17]: 7.52; inhibition (Canis familiaris [18]): Active; half-life [19]: 13.3 h; half-life [20]: 7.2 h; AUC(0-t) [21]: 242 µM·h; clearance [22]: 1.61 mL/min/kg; pIC50 (Cytochrome P450 2D6): < 5.00; Cmax [23]: 0.8 µM; pIC50 (Cytochrome P450 3A4 [24]): < 5.00; AUC(0-t) [25]: 6.5 µM·h; bioavailability [26]: 39.5%; Vd [27]: 0.22 L/kg; half-life [29]: 1.6 h; inhibition (Canis familiaris [31]): Active; Vd [32]: 0.87 L/kg
COc1c(-c2ccc(C(F)(F)F)cc2C)ccc2c1cnn2[C@@H](CC(C)C)c1ccc(C(=O)NCCC(=O)O)cc1 | – | – | – | – | – | – | – | – | – | – | – | – | – | – | 83% | 81% | – | – | 95% | 69% | Ratio Ki (Glucagon receptor [34]): 84
